According to US20230250096A1, “SUBSTITUTED PHENYL-1H-PYRROLO[2,3-c] PYRIDINE DERIVATIVES” (Janssen Pharmaceutica NV, priority 2021, published 2023):

Assays:
[1] = target: T1, menin/MLL (terbium chelate-labeled menin, FITC-MBM1 peptide) (Homo sapiens, UniProt O00255, T541A); assay: Menin/MLL homogenous time-resolved fluorescence (HTRF) assay; format: binding; details: 30 min incubation
T1 construct: Menin (a.a 1-610-6xhis tag, 2.3 mg/mL in 20 mM Hepes)
T1 sequence (O00255 with tags, fused parts or gaps T541A): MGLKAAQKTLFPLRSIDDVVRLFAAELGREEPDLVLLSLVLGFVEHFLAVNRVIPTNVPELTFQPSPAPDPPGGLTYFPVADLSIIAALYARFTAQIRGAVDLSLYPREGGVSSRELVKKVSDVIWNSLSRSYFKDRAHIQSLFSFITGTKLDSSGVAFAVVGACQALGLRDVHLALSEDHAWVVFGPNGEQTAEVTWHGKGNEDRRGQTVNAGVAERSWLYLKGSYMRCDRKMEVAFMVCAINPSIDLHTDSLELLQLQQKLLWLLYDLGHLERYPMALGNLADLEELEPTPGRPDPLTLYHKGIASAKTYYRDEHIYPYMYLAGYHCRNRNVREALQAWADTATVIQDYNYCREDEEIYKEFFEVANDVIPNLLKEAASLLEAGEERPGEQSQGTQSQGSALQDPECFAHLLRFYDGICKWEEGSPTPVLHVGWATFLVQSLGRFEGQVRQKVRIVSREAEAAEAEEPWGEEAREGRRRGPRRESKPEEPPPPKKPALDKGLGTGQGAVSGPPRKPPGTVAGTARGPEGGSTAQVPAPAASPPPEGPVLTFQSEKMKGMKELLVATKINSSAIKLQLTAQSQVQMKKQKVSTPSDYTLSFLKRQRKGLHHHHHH
Protocol: 1) Menin/MLL Homogenous Time-Resolved Fluorescence (HTRF) Assay
To an untreated, white 384-well microtiter plate was added 40 nL 200× test compound in DMSO and 4 μL 2× terbium chelate-labeled menin (vide infra for preparation) in assay buffer (40 mM Tris HCl, pH 7.5, 50 mM NaCl. 1 mM DTT (dithiothreitol) and 0.05% Pluronic F-127). After incubation of test compound and terbium chelate-labeled menin for 30 min at ambient temperature, 4 μL 2×FITC-MBM1 peptide (FITC-β-alanine-[…]-NH2) (“FITC” means fluorescein isothiocyanate) in assay buffer was added, the microtiter plate centrifuged at 1000 rpm for 1 min and the assay mixtures incubated for 15 min at ambient temperature. The relative amount of menin FITC-MBM1 complex present in an assay mixture is determined by measuring the homogenous time-resolved fluorescence (HTRF) of the terbium/FITC donor/acceptor fluorphore pair using an EnVision microplate reader (ex. 337 nm/terbium em. 490 nm/FITC em. 520 nm) at ambient temperature. The degree of fluorescence resonance energy transfer (the HTRF value) is expressed as the ratio of the fluorescence emission intensities of the FITC and terbium fluorophores (F^em520 nm/F^em490 nm). The final concentrations of reagents in the binding assay are […] terbium chelate-labeled menin, 75 nM FITC-MBM1 peptide and 0.5% DMSO in assay buffer. Dose-response titrations of test compounds are conducted using an 11 point, four-fold serial dilution scheme, starting typically at 10 μM.
Compound potencies were determined by first calculating % inhibition at each compound concentration according to equation 1:
% inhibition=((HC−LC)−(HTRF^compound−LC))/(HC−LC))*100 (Eqn 1)
Where LC and HC are the HTRF values of the assay in the presence or absence of a saturating concentration of a compound that competes with FITC-MBM1 for binding to menin, and HTRF^compound is the measured HTRF value in the presence of the test compound. HC and LC HTRF values represent an average of at least 10 replicates per plate.
% inhibition=Bottom+(Top−Bottom)/(1+10^((log/C50−log[cmpd])*h)) (Eqn 2)
Where Bottom and Top are the lower and upper asymptotes of the dose-response curve, respectively, IC50 is the concentration of compound that yields 50% inhibition of signal and h is the Hill coefficient.
Preparation of Terbium cryptate labeling of Menin: Menin (a.a 1-610-6xhis tag, 2.3 mg/mL in 20 mM Hepes (2-[4-(2-Hydroxyethyl)-1-piperazinyl]ethane sulfonic acid), 80 mM NaCl, 5 mM DTT (Dithiothreitol), pH 7.5) was labeled with terbium cryptate as follows. 200 μg of Menin was buffer exchanged into 1×Hepes buffer. 6.67 μM Menin was incubated with 8-fold molar excess NHS (N-hydroxysuccinimide)-terbium cryptate for 40 minutes at room temperature. Half of the labeled protein was purified away from free label by running the reaction over a NAP5 column with elution buffer (0.1M Hepes, pH 7+0.1% BSA (bovine serum albumin)). The other half was eluted with 0.1 M phosphate buffered saline (PBS), pH7. 400 μl of eluent was collected for each, aliquoted and frozen at −80° C. The final concentration of terbium-labeled Menin protein was 115 μg/mL in Hepes buffer and 85 μg/mL in PBS buffer, respectively.

MEIS1 mRNA expression = MEIS1 mRNA expression assay (Quantigene Singleplex) in MOLM14 cells; format: cell-based, human; details: 48 hours incubation
Protocol: 2b) MEIS1 mRNA Expression Assay
MEIS1 mRNA expression upon treatment of compound was examined by Quantigene Singleplex assay (Thermo Fisher Scientific). This technology allows for direct quantification of mRNA targets using probes hybridizing to defined target sequences of interest and the signal is detected using a Multimode plate reader Envision (PerkinElmer). The MOLM14 cell line was used for this experiment. Cells were plated in 96-well plates at 3,750 cells/well in the presence of increasing concentrations of compounds. After incubation of 48 hours with compounds, cells were lysed in lysis buffer and incubated for 45 minutes at 55° C. Cell lysates were mixed with human MEIS specific capture probe or human RPL28 (Ribosomal Protein L28) specific probe as a normalization control, as well as blocking probes. Cell lysates were then transferred to the custom assay hybridization plate (Thermo Fisher Scientific) and incubated for 18 to 22 hours at 55° C. Subsequently, plates were washed to remove unbound materials followed by sequential addition of preamplifiers, amplifiers, and label probe. Signals (═gene counts) were measured with a Multimode plate reader Envision. IC50S were calculated by dose-response modelling using appropriate software. For all non-housekeeper genes response equal counts corrected for background and relative expression. For each sample, each test gene signal (background subtracted) was divided by the normalization gene signal (RPL28: background subtracted). Fold changes were calculated by dividing the normalized values for the treated samples by the normalized values for the DMSO treated sample. Fold changes of each target gene were used for the calculation of IC50S.

| SMILES | IC50 [1] [nM] | IC50 (MEIS1 mRNA expression; Homo sapiens, MOLM-14, 48 h) [nM] | IC50 (MEIS1 mRNA expression) [nM] |
| --- | --- | --- | --- |
| CC[C@@H]([C@H]1C[C@H](N2C[C@H]3CN(C(C)=O)C[C@@H]3C2)C1)N1CC[C@H](Cc2cn(-c3ccc(F)cc3C(=O)N(C)C(C)C)c3cncc(Cl)c23)C1 (single isomer, unassigned) [Compound 27d] | 0.013 | 80 | – |
| Cc1cncc2c1c(CC1CNC(CC3CCOCC3)C1)cn2-c1ccc(F)cc1C(=O)N(C)C(C)C (single isomer, unassigned) [Compound 134d] | 0.425 | – | > 1000 |
| Cc1cncc2c1c(C[C@@H]1CCN(C3CCNC(=O)CC3)C1)cn2-c1ccc(F)cc1C(=O)N(C)C(C)C (mixture of isomers) [Compound 139] | 0.119 | 444 | – |
| Cc1cncc2c1c(CC1CCN(CC3CCN(C(=O)CCO)CC3)C1)cn2-c1ccc(F)cc1C(=O)N(C)C(C)C (single isomer, unassigned) [Compound 82] | ~0.035 | 11 | – |
| CC(=O)N1C[C@@H]2CN(CCC[C@@H](C(C)C)N3CC[C@@H](Cc4cn(-c5ccc(F)cc5C(=O)N(C)C(C)C)c5cncc(Cl)c45)C3)C[C@H]2C1 (single isomer, unassigned) [Compound 18b] | 0.017 | 110 | – |
| CCN(C(=O)c1cc(F)ccc1-n1cc(CC2CN(C(C(C)C)[C@H]3C[C@H](N4CCN(C(C)=O)CC4)C3)C2)c2c(C)cncc21)C(C)C (stereo partly drawn) [Compound 35b] | 0.077 | 47 | – |
| CC(=O)N1CCC(CN2CCC(Cc3cn(-c4ccc(F)cc4C(=O)N(C)C(C)C)c4cncc(C)c34)C2C)CC1 (stereo not drawn) [Compound 226] | 0.255 | – | 269 |
| Cc1cncc2c1c(CC1CNC(CC3CCOCC3)C1)cn2-c1ccc(F)cc1C(=O)N(C)C(C)C (single isomer, unassigned) [Compound 134c] | 0.073 | – | 119 |
| CC(=O)N[C@@H](C)CN1CC[C@H](Cc2cn(-c3ccc(F)cc3C(=O)N(C)C(C)C)c3cncc(C)c23)C1 (single isomer, unassigned) [Compound 119b] | 0.569 | > 1000 | – |
| CC(=O)N1CCC(CN2CCC(Cc3cn(-c4ccc(F)cc4C(=O)N(C)C(C)C)c4cncc(C)c34)C2C)CC1 (stereo not drawn) [Compound 227] | 0.655 | – | 551 |
| Cc1cncc2c1c(C=C1CCN(CC3CCOCC3)C1)cn2-c1ccc(F)cc1C(=O)N(C)C(C)C (single isomer, unassigned) [Compound 523b] | 0.124 | – | 62 |
| Cc1cncc2c1c(C[C@@H]1CCN(CC3CCN(C(=O)N(C)C)CC3)C1)cn2-c1ccc(F)cc1C(=O)N(C)C(C)C [Compound 149] | 0.037 | 23 | – |
| Cc1cncc2c1c(CC1CN(CC3CCOC3)C1)cn2-c1ccc(F)cc1C(=O)N(C)C(C)C (stereo not drawn) [Compound 287] | 0.034 | 26 | – |
| CC(=O)N1CC(CN2CC(Cc3cn(-c4ccc(F)cc4C(=O)N(C)C(C)C)c4cncc(C)c34)C2)C1 [Compound 114] | 0.173 | 487 | – |
| CC(=O)N1CCN(CCC[C@H](C(C)C)N2CC[C@@H](Cc3cn(-c4ccc(F)cc4C(=O)N(C)C(C)C)c4cncc(C)c34)C2)CC1 (single isomer, unassigned) [Compound 8a] | 0.024 | 13 | – |
| Cc1cncc2c1c(CC1CN(CC3CCOCC3)C1)cn2-c1ccc(F)cc1C(=O)N(C)C1CCOC1 (stereo not drawn) [Compound 269] | 1.7 | 18 | – |
| Cc1cncc2c1c(C[C@@H]1CCN(C[C@@H]3CCCCO3)C1)cn2-c1ccc(F)cc1C(=O)N(C)C(C)C (single isomer, unassigned) [Compound 147b] | 0.073 | ~105 | – |
| Cc1cncc2c1c(C[C@@H]1CCN([C@H](CCO)C3CCOCC3)C1)cn2-c1ccc(F)cc1C(=O)N(C)C(C)C (single isomer, unassigned) [Compound 253a] | 1.47 | ~540 | – |
| CCC(CCCN1C[C@H]2CN(C(C)=O)C[C@@H]2C1)N1CC[C@@H](Cc2cn(-c3ccc(F)cc3C(=O)N(C)C(C)C)c3cncc(C)c23)C1 (mixture of isomers) [Compound 16] | 0.051 | 70 | – |
| Cc1cncc2c1c(C[C@H]1CCN([C@H](C)C3CCOCC3)C1)cn2-c1ccc(F)cc1[S@@](=N)(=O)C(C)C (single isomer, unassigned) [Compound 183a] | 0.37 | 307 | – |
| Cc1cncc2c1c(C[C@@H]1CCN(CC3CCOCC3)C1)cn2-c1ccc(F)cc1C(=O)N1CCCC1C(C)O (single isomer, unassigned) [Compound 363a] | 0.228 | – | 359 |
| CC(=O)N1CCN(CCC[C@@H](C(C)C)N2CC[C@@H](Cc3cn(-c4ccc(F)cc4C(=O)N(C)C(C)C)c4cncc(C)c34)C2)CC1 (single isomer, unassigned) [Compound 8b] | ~7.3 | 44 | – |
| CC(=O)N1CCC(CN2CC[C@@H](Cc3cn(-c4ccc(F)cc4C(=O)N4C[C@@H](O)C[C@H]4C)c4cncc(C)c34)C2)CC1 [Compound 327] | 0.819 | ~616 | – |
| Cc1cncc2c1c(CC1CN(CC3(C)COC3)C1)cn2-c1ccc(F)cc1C(=O)N(C)C(C)C [Compound 286] | 0.046 | 59 | – |
| Cc1cncc2c1c(C[C@@H]1CCN([C@H](C)C3CCOCC3)C1)cn2-c1ccc(F)cc1[S@@](=N)(=O)C(C)C (single isomer, unassigned) [Compound 182a] | 0.462 | 287 | – |
| Cc1cncc2c1c(C[C@@H]1CCN(CC3CCN(C(=O)C(C)C)CC3)C1)cn2-c1ccc(F)cc1C(=O)N(CCO)C(C)C [Compound 329] | 0.152 | 13 | – |
| Cc1cncc2c1c(CC1CN(C3CCCN(C)C(=O)C3)C1)cn2-c1ccc(F)cc1C(=O)N(C)C(C)C (stereo not drawn) [Compound 291] | 0.594 | 468 | – |
